The numbers were not newly measured in patent publication US7662371B2, “Composition for lowering the concentration of intestinal pathogenic peptides” (Neurozym Biotech AS, priority 2001, dated 2010), which cites them from elsewhere.

The conditions of the data set: oral treatment, regressive-onset autism.

For `CN[C@H](CC(C)C)C(=O)N[C@H]1C(=O)N[C@@H](CC(N)=O)C(=O)N[C@H]2C(=O)N[C@H]3C(=O)N[C@H](C(=O)N[C@H](C(=O)O)c4cc(O)cc(O)c4-c4cc3ccc4O)[C@H](O)c3ccc(c(Cl)c3)Oc3cc2cc(c3O[C@@H]2O[C@H](CO)[C@@H](O)[C@H](O)[C@H]2O[C@H]2C[C@](C)(N)[C@H](O)[C@H](C)O2)Oc2ccc(cc2Cl)[C@H]1O` [vancomycin], the “improvement, number of children” value is 8 of 10.
